Measurements: patent publication US7193079B1 (Board of Trustees of Michigan State University, priority 2003, dated 2007)

Experiments:
IL-2 production = test: Inhibition of IL-2 production measured by competitive EIA in PMA/PHA-activated Jurkat T cells; format: cell-based, human; details: for IC50: PMA/PHA-activated Jurkat T cells, EIA, means of two experiments, standard deviation in parentheses
Experimental: (§1) Exposure of human Jurkat leukemia T-cells to phorbol myristate acetate (PMA/PHA) and THP-1 cells to lipopolysaccharide (LPS), activates NF-κB mediated gene transcription of several pro-inflammatory cytokines, including IL-2, IL-6, IL-8 and TNF-α (Baldwin, Ann. Rev. Immunol. 14: 649–683 (1996); Grilli et al., Int. Rev. Cytol. 143: 1–62 (1993)). […] The inhibition of IL-2 was evaluated in Jurkat cells after PMA/PHA activation (Mahon and O'Neill, J. Biol. Chem. 270: 28557–28564 (1995); Lindgren et al., Molec. Immunol. 38V 267–277 (2001)). The inhibition of TNF-α was evaluated in THP-1 cells after LPS activation (Aikawa et al., Inflamm. Res. 51: 188–194 (2002)). […] After 24 hours, the cell free supernatant fractions were collected and subjected to EIA for the quantification of total IL-2 production.
To each well of a flat bottomed 96 well culture plate 0.2 mL 1×10^6 Jurkat E6-1 cells/mL were added. Each sample was then treated in duplicate with the compounds in DMSO at either 10 μM, 1 μM, 0.1 μM or 10 ηM and allowed to incubate for thirty minutes at 37° C., 5% CO2. Cell free supernatant fractions were collected from stimulated cultures incubated for 24 hr at 37° C., 5% CO2. Cultures were stimulated with phytohemagglutinin (PHA, Sigma-Aldrich, St. Louis, Mo.) at 1 μg/mL; and phorbol myristate acetate (PMA, Sigma-Aldrich, St. Louis, Mo.) at 50 ng/mL. The concentration of IL-2 in each sample was then measured using a competitive enzyme immunoassay (Neogen Corporation, Lansing, Mich.) according to the manufacturer's protocol. Known IL-2 concentrations were plotted and fit a 4 parameter logistic curve. Unknown concentrations were then extrapolated from the standard curve.

NF-κB-DNA binding = test: EMSA for NF-κB-DNA binding in nuclear extracts of PMA/PHA-activated Jurkat cells; format: cell-based, human; details: for Inhibition of DNA-binding (relative to activated control) / Count per mm^2 NF-κB bands: EMSA; for Inhibition of DNA-binding (relative to activated control): PMA-activated Jurkat cells; for Count per mm^2 NF-κB bands: activated control 105.55
Experimental: Human Jurkat leukemia T-cells (clone E6-1; ATCC No. […] The Jurkat cells (1×10^6 cells/mL) are subsequently treated with various concentrations of the compounds in DMSO for 30 min. at 37° C. and 5% CO2 followed by PMA (50 ng/mL) and PHA ([…]) stimulation for an additional 30 minutes. The cells were harvested by centrifugation, washed in ice cold PBS and the nuclear extracts were prepared as previously described (Dignam et al., Nucl. Acids Res. 11: 1475-1489 (1983)). The protein concentration of the extracts was determined according to the Method of Bradford (1976) with BioRad reagents. Nuclear extracts were incubated for 20 minutes at room temperature with a double stranded Cy3 labeled NF-κB consensus oligonucleotide, [NT] ID NO:1). The binding mixture (25 μL) contained 10 mM HEPES-NaOH pH 7.9, 4 mM Tris-HCL, pH 7.9, 6.0 mM KCl, 1 mM EDTA, 1 mM DTT, 10% glycerol, 0.3 mg/mL bovine serum albumin, and 1 μg of poly (dI:dC). The binding mixtures (10 μg of nuclear extract protein) were incubated for 20 minutes at room temperature with 0.16 pmol of Cy3 labeled oligonucleotide. The mixture was loaded on a 4% polyacrylamide gel prepared in 1× TRIS borate/EDTA buffer and was electrophoresed at 200 V for 20 minutes. After electrophoresis the gel was analyzed using a phosphorimager (BIORAD FX PLUS, Biorad Laboratories, Inc., Hercules, Calif.) for detection of NF-κB-DNA binding.

TNF-α production = test: Inhibition of TNF-α production measured by competitive EIA in LPS stimulated THP-1 cells; format: cell-based, human; details: for IC50: EIA, 3 hr incubation, means of two experiments, standard deviation in parentheses
Experimental: as §1
The assay measured the ability of the compounds to inhibit TNF-α production in LPS stimulated THP-1 cells (Aikawa et al., Inflamm. Res. 51V 188–194 (2002)).
THP-1 cells are grown in RPMI-1640 Media (Gibco-BRL, Rockville, Md.) supplemented with 5% fetal bovine serum, penicillin (614 ηg/mL), streptomycin (10 μg/mL) and HEPES buffer, pH 7.2 at 37° C., 5% CO2. To each well of a flat bottomed 96 well culture plate 0.2 mL 1×10^6 THP-1 cells/mL were added. Each sample was then treated in duplicate with the compounds in DMSO at either 10 μM, 1 μM, 0.1 μM or 10 ηM and allowed to incubate for thirty minutes at 37° C., 5% CO2. Cell free supernatant fractions were collected from stimulated cultures incubated for 3 hr at 37° C., 5% CO2. Cultures were stimulated with LPS (Sigma-Aldrich, St. Louis, Mo.) at 1 μg/mL. The concentration of TNF-α in each sample was then measured using a competitive enzyme immunoassay (Neogen Corporation, Lansing, Mich.) according to the manufacturer's protocol. To make a standard curve, known TNF-α concentrations were plotted and fitted to a 4 parameter logistic curve. Unknown concentrations were then extrapolated from the standard curve.

CEM leukemia cells = test: Inhibition of cell growth in CEM leukemia cells (trypan blue counting); format: cell-based; details: 48 hour, means of two experiments, standard deviation in parentheses
Experimental: Cells were treated at different concentrations ranging from 10 ηM to 5 μM concentrations over a 48 hour time period.
CEM cells (CCRF-CEM; ATCC No. CCL-119, American Type Culture Collection, Manassas, Va.) were grown in RPMI-1640 Media (Gibco-BRL, Rockville, Md.) supplemented with 10% Fetal Bovine Serum, penicillin (614 r1 g/mL), streptomycin (10 μg/mL) and HEPES buffer, pH 7.2 at 37° C., 5% CO2. DMSO was used as the vector for all drugs and added in the control experiments. Cell cultures were then treated with 10 μM, 1 μM, 0.1 μM or 10 ηM of the drug in duplicate and allowed to incubate at 37° C., 5% CO2. Cells were stained with 4% trypan blue solution in PBS, and counted under the microscope (Thomas Scientific, Fisher Scientific) in duplicate. This was repeated for Oh, 2 h, 6 h, 12 h, 24 h, and 48 h. The data points obtained were then plotted and a point-to-point curve was drawn to determine the effect of the drug on the cells.

CDK1 = test: Inhibition of CDK1 (method of Meijer et al.); format: biochemical
Excerpt: The inhibitory activity of compound 3 was less pronounced.

GSK-3β = GSK-3β (Homo sapiens, UniProt P49841); test: Inhibition of GSK-3β (method of Meijer et al.); format: biochemical
CHK1 = target: T1, CHK1 (Homo sapiens, UniProt O14757); details: natural products, general statement; cited from earlier work
T1 sequence (O14757 1-476): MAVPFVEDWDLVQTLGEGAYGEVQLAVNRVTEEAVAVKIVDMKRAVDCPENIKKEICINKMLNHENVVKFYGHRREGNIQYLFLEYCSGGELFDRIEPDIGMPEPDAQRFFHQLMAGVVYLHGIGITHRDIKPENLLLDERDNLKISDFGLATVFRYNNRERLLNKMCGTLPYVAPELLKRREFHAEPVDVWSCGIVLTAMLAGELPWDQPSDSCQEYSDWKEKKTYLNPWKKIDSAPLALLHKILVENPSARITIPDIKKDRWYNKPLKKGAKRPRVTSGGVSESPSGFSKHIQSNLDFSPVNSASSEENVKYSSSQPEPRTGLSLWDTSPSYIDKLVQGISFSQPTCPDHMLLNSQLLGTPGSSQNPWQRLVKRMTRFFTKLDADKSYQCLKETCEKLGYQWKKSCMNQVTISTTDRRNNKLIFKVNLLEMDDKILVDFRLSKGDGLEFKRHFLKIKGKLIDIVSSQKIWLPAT

Sequence of GSK-3β (P49841 whole entry, species assumed): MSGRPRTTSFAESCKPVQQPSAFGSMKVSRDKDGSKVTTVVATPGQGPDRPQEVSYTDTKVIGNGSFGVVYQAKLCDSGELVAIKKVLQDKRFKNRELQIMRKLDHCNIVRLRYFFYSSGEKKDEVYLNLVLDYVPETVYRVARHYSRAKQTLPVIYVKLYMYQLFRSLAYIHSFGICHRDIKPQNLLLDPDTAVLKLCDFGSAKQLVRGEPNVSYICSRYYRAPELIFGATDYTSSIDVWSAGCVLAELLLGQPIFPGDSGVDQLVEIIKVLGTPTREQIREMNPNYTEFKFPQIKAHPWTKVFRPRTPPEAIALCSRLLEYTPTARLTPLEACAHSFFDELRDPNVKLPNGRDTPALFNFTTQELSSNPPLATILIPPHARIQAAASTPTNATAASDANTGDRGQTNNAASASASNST

SMILES	IC50 (IL-2 production; Homo sapiens, 24 hr)	Inhibition of IL-2 production (in words) (IL-2 production; Jurkat cells, measured up to 10 μM)	Inhibition of DNA-binding (relative to activated control) (NF-κB-DNA binding; 1.0 μM)	Count per mm^2 NF-κB bands (NF-κB-DNA binding; 1.0 μM)	Inhibition of DNA-binding (relative to activated control) (NF-κB-DNA binding; 5.0 μM)	Count per mm^2 NF-κB bands (NF-κB-DNA binding; 5.0 μM)	Inhibition of NF-κB-DNA binding (in words) (NF-κB-DNA binding; measured up to concentrations of 5 μM)	IC50 (TNF-α production; Homo sapiens)	Inhibition of TNF-α production (in words) (TNF-α production; tested up to 10 μM)	GI50 (CEM leukemia cells)	IC50 (CDK1)	IC50 (GSK-3β)	melting point	IC50 (IL-2 production; Homo sapiens, Jurkat, 24 h)	IC50 (IL-2 production; 24 hr)	IC50 (TNF-α production)	IC50 (TNF-α production; Homo sapiens, THP-1, 3 h)	Inhibition of checkpoint kinase CHK1 (in words) (CHK1)
Cn1c2c(c3ccccc31)C(=C1N=C(N)NC1=O)CCNC2=O [Compound 3, 5-(2-amino-5-oxo-1,5-dihydro-imidazol-4-ylidene)-10-methyl-3,4,5,10-tetrahydro-2H-azepino[3,4-b]indol-1-one]	> 10 µM	no significant inhibition of IL-2 production	0%	118.82 Count per mm^2	0%	121.76 Count per mm^2	did not appear to substantially inhibit DNA binding	> 10 µM	did not have any significant activity	14.3 µM	> 10 µM	> 10 µM	> 260 °C	–	–	–	–	–
NC1=NC(=O)/C(=C2\CCNC(=O)c3[nH]c(Br)cc32)N1 [Hymenialdisine 1, hymenialdisine, reference compound]	–	–	–	102.14 Count per mm^2	–	57.06 Count per mm^2	–	–	–	1.61 µM	–	–	–	2.4 µM	2.41 µM	1.36 µM	1.4 µM	–
S=C(S)N1CCCC1 [PDTC, pyrrolidinedithiocarbamate, reference compound]	5.12 µM	–	30%	73.48 Count per mm^2	51%	51.68 Count per mm^2	–	6.11 µM	–	–	–	–	–	–	–	–	–	–
NC1=N/C(=C2/CCNC(=O)c3[nH]ccc32)C(=O)N1 [debromohymenialdisine]	–	–	–	–	–	–	–	–	–	–	–	–	–	–	–	–	–	low micromolar concentrations
